Measurements published in patent publication US5872207A, “N-terminal-marked peptides immobilized on glass beads and method of preparation and method of use thereof” (Sanofi Pharmaceuticals, Inc., priority 1995, dated 1999).
Ends that are not written are not given here. * marks the point of attachment. Hcp = 3-(7-hydroxy-4-coumarinyl)propionyl, N-terminal fluorescent marker, O=C(CCc1cc(=O)oc2cc(O)ccc12)*; silane glass bead = not defined here; Ahx = NCCCCCC(=O)O

Test system: recombinant truncated collagenase
Experiment: Bioassay: cleavage of immobilized peptide by recombinant truncated collagenase, fluorescence of supernatant
Type: biochemical
Conditions: collagenase 10 nM, immobilized peptide 7.5 mg/mL, pH 7.5, 30-60 minutes; excitation 355 nm, emission 460 nm; mean of two measurements
Description: In a second process aspect the invention is a biochemical assay method which comprises reacting in aqueous medium a protease and a substrate peptide or peptide having an amino acid-like moiety in place of an amino acid moiety thereof immobilized on glass beads by a C-terminal linker-anchor and marked by an N-terminal fluorescent marker, separating the resulting glass beads from the supernatant liquid, measuring the fluorescence of the supernatant liquid, and determining from the measured fluorescence the extent of cleavage of the substrate by the protease. By an additional step the site of cleavage of the substrate by the protease can be determined by sequential amino acid analysis.
The protease used was recombinant truncated collagenase of molecular weight 19,000, which was stored at 4° C. as a 10 μM stock aqueous solution and diluted to 30 nM just prior to carrying out the assay with aqueous buffer solution containing tromethamine (TRIS, 50 mM), sodium chloride solution (0.2M), calcium chloride (10 mM), and octoxynol-9 to 10 (Triton X-100, 0.1% v/v), whose pH was adjusted to 7.5 with aqueous sodium hydroxide solution and which was filtered and stored at 4° C. A 2- to 3-mg sample of the immobilized peptide was weighed into a 1.5-mL polypropylene microfuge tube. Sufficient buffer solution was added with vortexing to wet the immobilized peptide and make the concentration thereof 7.5 mg/mL. Sufficient collagenase solution was added to make the concentration thereof 10 nM, the tube was vortexed mechanically for 30-60 minutes, and the reaction was stopped by centrifuging. Part of the supernatant solution (200 μL) was transferred to a well of a 96-well plate. Fluorescence was measured at an excitation wavelength of 355 nm and an emission wavelength of 460 nm. The following mean fluorescence values from two measurements were obtained from the immobilized peptides of Formulas IIIa-r.

Substance | Mean Fluorescence Value ± Deviation
IIIg (Hcp-GPLAMF; not fully specified (C-terminus); also: C-terminus linked via NH(CH2)3Si(OR)2O anchor to glass bead) | 5374.5 ± 53
IIIc (Hcp-GPLAMF; not fully specified (C-terminus); also: C-terminus linked via NH(CH2)3Si(OR)2O anchor to glass bead) | 5733.5 ± 132
IIIf (Hcp-GPLAMF; not fully specified (C-terminus); also: C-terminus linked via NH(CH2)3Si(OR)2O anchor to glass bead) | 7559.5 ± 2551
IIIi (Hcp-GPLAMF-{Ahx-Ahx-Ahx-Ahx-Ahx-Ahx-Ahx-Ahx-Ahx-silane glass bead}; not fully specified; reading uncertain; also: C-terminus linked via NH(CH2)3Si(OR)2O anchor to glass bead) | 4238.5 ± 192
IIId (Hcp-GPLAMF; not fully specified (C-terminus); also: C-terminus linked via NH(CH2)3Si(OR)2O anchor to glass bead) | 6157.0 ± 72
IIIn (Hcp-GPLALF; not fully specified (C-terminus); also: C-terminus linked via NH(CH2)3Si(OR)2O anchor to glass bead) | 2964.5 ± 136
IIIj (Hcp-GPLAMF-{Ahx-Ahx-Ahx-Ahx-Ahx-Ahx-Ahx-Ahx-Ahx-Ahx-silane glass bead}; not fully specified; reading uncertain; also: C-terminus linked via NH(CH2)3Si(OR)2O anchor to glass bead) | 3662.5 ± 23
IIIl (Hcp-GALALF; not fully specified (C-terminus); also: C-terminus linked via NH(CH2)3Si(OR)2O anchor to glass bead) | 707.9 ± 266

Further lines, results first:

Mean Fluorescence Value ± Deviation | Substance
328.1 ± 0 | IIIo (Hcp-GPLAAF; not fully specified (C-terminus); also: C-terminus linked via NH(CH2)3Si(OR)2O anchor to glass bead)
2042.5 ± 13 | IIIa (Hcp-GPLAMF; not fully specified (C-terminus); also: C-terminus linked via NH(CH2)3Si(OR)2O anchor to glass bead)
4723.5 ± 213 | IIIh (Hcp-GPLAMF-{Ahx-Ahx-Ahx-Ahx-Ahx-Ahx-Ahx-Ahx-silane glass bead}; not fully specified; reading uncertain; also: C-terminus linked via NH(CH2)3Si(OR)2O anchor to glass bead)
1913.5 ± 63 | IIIp (Hcp-GPLALA; not fully specified (C-terminus); also: C-terminus linked via NH(CH2)3Si(OR)2O anchor to glass bead)
3316.0 ± 57 | IIIk (Hcp-APLALF; not fully specified (C-terminus); also: C-terminus linked via NH(CH2)3Si(OR)2O anchor to glass bead)
5838.5 ± 170 | IIIe (Hcp-GPLAMF; not fully specified (C-terminus); also: C-terminus linked via NH(CH2)3Si(OR)2O anchor to glass bead)
4283.0 ± 150 | IIIm (Hcp-GPAALF; not fully specified (C-terminus); also: C-terminus linked via NH(CH2)3Si(OR)2O anchor to glass bead)
379.5 ± 115 | IIIq (Hcp-AAALWAA; not fully specified (C-terminus); also: C-terminus linked via NH(CH2)3Si(OR)2O anchor to glass bead)
3824.5 ± 9 | IIIb (Hcp-GPLAMF; not fully specified (C-terminus); also: C-terminus linked via NH(CH2)3Si(OR)2O anchor to glass bead)

Same assay, conditions: immobilized peptides having the linker (Acp)7 (Formulas IIIg and IIIk-r)

Substance | extent of cleavage
IIIg (Hcp-GPLAMF; not fully specified (C-terminus); also: C-terminus linked via NH(CH2)3Si(OR)2O anchor to glass bead) | underwent cleavage to the greatest extent

Target: monoclonal antibody against β-endorphin
Experiment: not given
Conditions: Lam et al., Nature 354, 82-84 (1991); cited from earlier work

Substance | Ki [nM]
YGGFL | 17.5 ± 3.2
YGGFQ | 15 ± 1.7

Test system: mouse monoclonal antibody 3E7
Experiment: not given
Conditions: Fodor et al., Science 251, 767-773 (1991); checkerboard on glass plate, epifluorescence microscope; cited from earlier work

Substance | binding / detection by antibody 3E7
YGGFL | showed fluorescence
